Values of other authors in US20070287931A1, “Methods and systems for administering an appropriate pharmacological treatment to a patient for managing epilepsy and other neurological disorders” (priority 2006, published 2007).
Where two headings read alike, the source gives them in different places.

How the values were obtained:
seizure = conditions: intranasal
[1] = intranasal
[2] = for plasma concentration per daily dose of 1 mg/kg: per daily dose of 1 mg/kg; for plasma concentration per daily dose of 1 mg/kg of primidone: per daily dose of 1 mg/kg of primidone
partial seizures = conditions: controlled trials, adjunctive therapy of partial seizures in adults, oral
[3] = system: dopaminergic and serotonergic neurotransmission; conditions: in vivo microdialysis
sodium channels = conditions: in vitro
T-type Ca^2+ currents = conditions: in vitro
rat hippocampal slices = conditions: 10-30 μg/mL
[4] = system: cultured mouse spinal cord neurons; conditions: 10-30 μg/mL
[5] = system: GABA/benzodiazepine receptor ionophore complex; conditions: in vitro

In the case of `Cc1ncc2n1-c1ccc(Cl)cc1C(c1ccccc1F)=NC2` [Midazolam], the “time to terminate a seizure” value (seizure) is given as 30 s, the “KA (absorption rate constant)” value [1] is given as 2.46 h⁻¹ and the “tE1/2 (elimination half-life)” value [1] is given as 3.1 h.
In the case of `O=C1NC(=O)C(c2ccccc2)(c2ccccc2)N1` [Phenyloin, diphenylhydantoin], the “concentrations at which toxic effects such as nystagmus develop” value is listed as “around 20 μg/ml” and the “concentrations giving chronic control of seizures” value (seizures) is listed as “above 10 μg/ml”.
For `CCC1(C)CC(=O)NC1=O` (stereo not drawn) [ethosuximide, Ethosuximide], the “plasma concentration per daily dose of 1 mg/kg” value ([2]; long-term therapy) is given as “about 2 μg/ml”.
For `CCC1(c2ccccc2)C(=O)NC(=O)NC1=O` [phenobarbital, Phenobarbital], the “plasma concentration per daily dose of 1 mg/kg” value ([2]; long term therapy, adults) is listed as “about 10 μg/ml” and the “plasma concentration per daily dose of 1 mg/kg of primidone” value ([2]; long term therapy) is listed as “about 2 μg/ml”.
In the case of `CCC1(c2ccccc2)C(=O)NCNC1=O` [primidone, Primidone], the “plasma concentration per daily dose of 1 mg/kg of primidone” value ([2]; long term therapy) is given as “about 1 μg/ml”.
In the case of `NS(=O)(=O)Cc1noc2ccccc12` [zonisamide, 1,2-benzisoxazole-3-methanesulfonamide], the effective doses (partial seizures) is listed as 100 to 600 mg/day, the “dopaminergic and serotonergic neurotransmission” value [3] is listed as “facilitates both dopaminergic and serotonergic neurotransmission” and the “effect on sodium channels” value (sodium channels) is listed as “blocks sodium channels”. For the same compound, the “effect on voltage-dependent, transient inward currents (T-type Ca2+ currents)” value (T-type Ca^2+ currents) was “reduces voltage-dependent, transient inward currents”, the “neuronal or glial uptake of [3H]-GABA” value (rat hippocampal slices) was “without affecting” and the “postsynaptic GABA or glutamate responses” value [4] was “without affecting”. For the same compound, the synaptically-driven electrical activity [4] was “suppresses synaptically-driven electrical activity”, the “binding to the GABA/benzodiazepine receptor ionophore complex” value [5] was “binds to the GABA/benzodiazepine receptor ionophore complex in an allosteric fashion which does not produce changes in chloride flux” and the “carbonic anhydrase inhibiting activity” value (carbonic anhydrase) was “weak”.
